# From patent publication US20100130737A1, “Regulating Agent of GPR34 Receptor Function” (TAKEDA PHARMACEUTICAL COMPANY LIMITED, priority 2005, published 2010)
row,melting point,SMILES
1,242 °C,"O=C(CC1CCN(C(=O)c2ccc(F)cc2)CC1)NC1(C(=O)O)Cc2ccc(-c3ccc(Cl)cc3)cc2C1 (stereo not shown) [Example B166, 5-(4-Chlorophenyl)-2-({[1-(4-fluorobenzoyl)piperidin-4-yl]acetyl}amino)indan-2-carboxylic acid]"
2,196 °C,"O=C(CC1CCN(C(=O)Cc2ccc(F)cc2)CC1)NC1(C(=O)O)Cc2ccc(-c3ccc(Cl)cc3)cc2C1 (stereo not shown) [Example B167, 5-(4-Chlorophenyl)-2-[({1-[(4-fluorophenyl)acetyl]piperidin-4-yl}acetyl)amino]indan-2-carboxylic acid]"
3,210 to 212 °C,"O=C(CCCSc1nc2ccccc2s1)NC1(C(=O)O)Cc2ccc(-c3ccc(Cl)cc3)cc2C1 (stereo not shown) [Example B168, 2-{[4-(1,3-Benzothiazol-2-ylthio)-butanoyl]amino}-5-(4-chlorophenyl)indan-2-carboxylic acid]"
4,227 to 230 °C,"O=C(CSc1nc2ccccc2o1)NC1(C(=O)O)Cc2ccc(-c3ccc(Cl)cc3)cc2C1 (stereo not shown) [Example B169, 2-{[(1,3-Benzoxazol-2-ylthio)acetyl]amino}-5-(4-chlorophenyl)indan-2-carboxylic acid]"
5,210 to 212 °C,"O=C(CCCSc1ccc2ccccc2c1)NC1(C(=O)O)Cc2ccc(-c3ccc(Cl)cc3)cc2C1 (stereo not shown) [Example B170, 5-(4-Chlorophenyl)-2-{[4-(2-naphthylthio)butanoyl]amino}indan-2-carboxylic acid]"
6,223 to 225 °C,"O=C(CSc1ccc2ccccc2c1)NC1(C(=O)O)Cc2ccc(-c3ccc(Cl)cc3)cc2C1 (stereo not shown) [Example B171, 5-(4-Chlorophenyl)-2-{[(2-naphthylthio)acetyl]amino)indan-2-carboxylic acid]"
7,215 °C,"O=C(CCSc1ccc2ccccc2c1)NC1(C(=O)O)Cc2ccc(-c3ccc(Cl)cc3)cc2C1 (stereo not shown) [Example B172, 5-(4-Chlorophenyl)-2-{[3-(2-naphthylthio)propanoyl]amino}indan-2-carboxylic acid]"
8,231 to 233 °C,"COc1ccc(CC(=O)NC2(C(=O)O)Cc3ccc(-c4ccc(Cl)cc4)cc3C2)cc1 (stereo not shown) [Example B173, 5-(4-Chlorophenyl)-2-{[(4-methoxyphenyl)acetyl]amino)indan-2-carboxylic acid]"
9,209 to 211 °C,O=C(Cc1c[nH]c2ccccc12)NC1(C(=O)O)Cc2ccc(-c3ccc(Cl)cc3)cc2C1 (stereo not shown) [Example B176]
10,240 to 243 °C,"O=C(Cc1ccc(-c2ccccc2)cc1)NC1(C(=O)O)Cc2ccc(-c3ccc(Cl)cc3)cc2C1 (stereo not shown) [Example B177, 2-[(Biphenyl-4-ylacetyl)amino]-5-(4-chlorophenyl)indan-2-carboxylic acid]"
11,189 °C,"O=C(Cc1ccccn1)NC1(C(=O)O)Cc2ccc(-c3ccc(Cl)cc3)cc2C1 (stereo not shown) [Example B178, 5-(4-Chlorophenyl)-2-[(pyridin-2-ylacetyl)amino]indan-2-carboxylic acid]"
12,156 °C,"O=C(NC1(C(=O)O)Cc2ccc(-c3ccc(Cl)cc3)cc2C1)[C@@H](O)c1ccccc1 (stereo partly drawn) [Example B179, 5-(4-Chlorophenyl)-2-{[(2S)-2-hydroxy-2-phenylacetyl]amino}indan-2-carboxylic acid]"
13,177 °C,"O=C(Nc1ccc(F)cc1)NC1(C(=O)O)Cc2ccc(-c3ccc(Cl)cc3)cc2C1 (stereo not shown) [Example B180, 5-(4-Chlorophenyl)-2-({[(4-fluorophenyl)amino]carbonyl}amino)indan-2-carboxylic acid]"
14,207 °C,"O=C(Cc1cccc(OCc2ccccc2)c1)NC1(C(=O)O)Cc2ccc(-c3ccc(Cl)cc3)cc2C1 (stereo not shown) [Example B181, 2-({[3-(Benzyloxy)phenyl]acetyl}amino)-5-(4-chlorophenyl)indan-2-carboxylic acid]"
15,227 to 228 °C,"O=C(Cc1ccc(Oc2ccccc2)cc1)NC1(C(=O)O)Cc2ccc(-c3ccc(Cl)cc3)cc2C1 (stereo not shown) [Example B183, 5-(4-Chlorophenyl)-2-{[(4-phenoxyphenyl)acetyl]amino)indan-2-carboxylic acid]"
16,213 to 215 °C,"O=C(Cc1ccc(OCc2ccc(F)cc2)cc1)NC1(C(=O)O)Cc2ccc(-c3ccccc3Cl)cc2C1 (stereo not shown) [Example B184, 5-(2-Chlorophenyl)-2-[({4-[(4-fluorobenzyl)oxy]phenyl}acetyl}amino}indan-2-carboxylic acid]"
17,173 to 174 °C,"O=C(Cc1ccc(OCc2ccc(F)cc2)cc1)NC1(C(=O)O)Cc2ccc(-c3cccc(Cl)c3)cc2C1 (stereo not shown) [Example B185, 5-(3-Chlorophenyl)-2-[({4-[(4-fluorobenzyl)oxy]phenyl}acetyl)amino]indan-2-carboxylic acid]"
18,214 to 216 °C,"O=C(Cc1ccc(OCc2ccc(F)cc2)cc1)NC1(C(=O)O)Cc2ccc(-c3ccc(Cl)s3)cc2C1 (stereo not shown) [Example B186, 5-(5-Chloro-2-thienyl)-2-[({4-[(4-fluorobenzyl)oxy]phenyl}acetyl)amino]indan-2-carboxylic acid]"
19,220 to 222 °C,"O=C(Cc1ccc(OCc2cccc(C(=O)O)c2)cc1)NC1(C(=O)O)Cc2ccc(-c3ccc(Cl)cc3)cc2C1 (stereo not shown) [Example B188, 2-[({4-[(3-Carboxybenzyl)oxy]phenyl}acetyl)amino]-5-(4-chlorophenyl)indan-2-carboxylic acid]"
20,209 to 211 °C,"O=C(Cc1ccc(OCc2ccccc2C(=O)O)cc1)NC1(C(=O)O)Cc2ccc(-c3ccc(Cl)cc3)cc2C1 (stereo not shown) [Example B190, 2-[({4-[(2-Carboxybenzyl)oxy]phenyl}acetyl)amino]-5-(4-chlorophenyl)indan-2-carboxylic acid]"
21,108 to 110 °C,"O=C(Cc1ccc(OCc2ccc(F)cc2)cc1)NC1(c2nn[nH]n2)Cc2ccc(-c3ccc(Cl)cc3)cc2C1 (stereo not shown) [Example B191, N-[5-(4-Chlorophenyl)-2-(2H-tetrazol-5-yl)-2,3-dihydro-1H-inden-2-yl]-2-{4-[(4-fluorobenzyl)oxy]phenyl}acetamide]"
22,191 to 192 °C,"Nc1cccc(COc2ccc(CC(=O)NC3(C(=O)O)Cc4ccc(-c5ccc(Cl)cc5)cc4C3)cc2)c1 (stereo not shown) [Example B192, 2-[({4-[(3-Aminobenzyl)oxy]phenyl}acetyl)amino]-5-(4-chlorophenyl)indan-2-carboxylic acid]"
23,169 to 170 °C,"CS(=O)(=O)Nc1cccc(COc2ccc(CC(=O)NC3(C(=O)O)Cc4ccc(-c5ccc(Cl)cc5)cc4C3)cc2)c1 (stereo not shown) [Example B193, 5-(4-Chlorophenyl)-2-({[4-({3-[(methylsulfonyl)amino]benzyl)oxy)phenyl]acetyl}amino)indan-2-carboxylic acid]"

row,SMILES,melting point
1,"CC(C)(C)OC(=O)c1cccc(COc2ccc(CC(=O)NC3(C(=O)O)Cc4ccc(-c5ccc(Cl)cc5)cc4C3)cc2)c1 (stereo not shown) [Example B187, 2-{[(4-{[3-(tert-Butoxycarbonyl)benzyl]oxy}phenyl)acetyl]amino}-5-(4-chlorophenyl)indan-2-carboxylic acid]",177 to 179 °C
2,"CC(C)(C)OC(=O)c1ccccc1COc1ccc(CC(=O)NC2(C(=O)O)Cc3ccc(-c4ccc(Cl)cc4)cc3C2)cc1 (stereo not shown) [Example B189, 2-{[(4-{[2-(tert-Butoxycarbonyl)benzyl]oxy}phenyl)acetyl]amino}-5-(4-chlorophenyl)indan-2-carboxylic acid]",170 to 171 °C
